Data set [1] is described as follows: In vivo cytokine assay, plasma of Renca tumor-bearing mice. Also on record: species or system mouse. The procedure: Cytokines were measured in mouse plasma harvested at 3, 6, 24, or 48 hours after treatment with compounds or ADCs using a Milliplex MAP mouse cytokine/chemokine magnetic bead panel assay kit (MCYTOMAG-70k custom 11-plex kit: MCP1, MIP1α, MIP1β, TNFα, IFNγ, IL-10, IL-12p70, IL-6, IL-1β, IP10, RANTES) and analyzed using a Luminex™ MAGPIX™ Instrument System. Values that were outside of the standard curve range (<3.2 or […]) were excluded from calculation of the mean values.

The test system of another data set is Renca cancer cells. Description: Renca tumor model, in vivo anti-tumor activity and weight change. The conditions noted are these: Renca tumor-bearing mice. Here is the method: In some experiments, Renca tumor cells were engineered to express the indicated murine or human target antigen.
When tumor volumes reached 100 mm^3, the mice were dosed with either compounds or ADCs by intraperitoneal or intravenous injection at the indicated dosing schedule and tumor volumes were monitored twice weekly. Compounds were formulated in 40% PEG400 in saline.
A syngeneic system was used to assess the ability of the STING agonist ADCs to induce immune responses in vivo and drive an anti-tumor immune response. The Renca system is a subcutaneous, mouse renal adenocarcinoma model. Female Balb/c mice were implanted with 2×10^6 Renca cells subcutaneously in the flank on day 0. When mean tumor size of 100 mm^3 (measured by using the formula Volume (mm^3)=0.5*Length*Width^2 where length is the longer dimension) was reached mice were randomized into treatment groups of ≥5 mice per group. Animals were then treated intraperitoneally (ADCs or compounds) or intravenously (compounds) with the indicated treatment every 7 days, for 3 doses total (or as indicated). Tumor length and width and the weight of the animals was measured throughout the study and tumor volume was calculated using the formula above. Animals were followed until the tumor volume reached ˜1000 mm^3; animals were then euthanized.

The subject of data set [2] is THP1-Dual™ reporter cells. Nature of the data set: THP1-Dual cell reporter assay (IRF-Lucia luciferase reporter). Format: cell-based, human. In outline: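 THP1-Dual monocytic cells (~100,000/well) were exposed to compound for 24 h (ADCs 48 h). Secreted IRF-driven Lucia luciferase in the supernatant was quantified by QUANTI-Luc luminescence.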
In general terms: A reporter such as luciferase makes a cellular process visible.

The next data set has as its system MDAMB231. Description: Cancer cell direct cytotoxicity assay (CellTiter-Glo), MDAMB231. Format: cell-based. The conditions noted are these: Homo sapiens, MDA-MB-231; MDAMB231, 96 h, free compound; read-out: Compound X50. The procedure: (§1) Bystander activity of ADCs was evaluated using Renca cancer cells and THP1-Dual™ cells (InvivoGen) which contain an IRF-Lucia luciferase reporter. Cells were cultured in RPMI-1640 (Gibco) with 10% heat-inactivated fetal bovine serum, Pen-Strep (100 U/ml-100 μg/ml, Gibco), HEPES (10 mM, Gibco), sodium pyruvate (1 mM, Gibco), MEM non-essential amino acids (1×, Gibco), GlutaMAX (1×, Gibco), and beta-mercaptoethanol (55 μM, Gibco). Renca cells were plated in a 96-well flat bottom tissue culture-treated clear polystyrene plate (Corning Costar #3596) at 50,000 cells per well in 100 μL. On the day following the initial plating, 50,000 THP1-Dual™ cells were added to each well with the indicated concentration of ADC in a total volume of 200 μL. Supernatant was harvested at 48 hours post addition of the THP1-Dual™ cells. To measure Lucia reporter signal, 10 μL of supernatant was combined with 40 μL of QUANTI-Luc™ Luminescence assay reagent (Invivogen PN: rep-qlc1) in a 96-well clear flat bottom tissue culture-treated black polystyrene plate (Corning Costar PN: 3603) and read on a Perkin Elmer Envision plate reader. In some experiments, HEK 293T cells engineered to express a murine protein typically expressed by immune cells (target antigen C— an immune cell antigen) were plated as above instead of Renca tumor cells. Cancer Cell Direct Cytotoxicity Assay
(§2) Cancer cells were counted and plated in 40 μL complete growth media in 384-well, white-walled tissue culture treated plates (Corning). Cell plates were incubated at 37° C. and with 5% CO2 overnight to allow the cells to equilibrate. Stock solutions containing ADCs or free drugs were serially diluted in RPMI-1640+20% fetal bovine serum (FBS). 10 μL of each concentration were then added to each cell plate in duplicate. Cells were then incubated at 37° C. and with 5% CO2 for 96 hours, upon which, the cell plates were removed from the incubator and allowed to cool to room temperature for 30 minutes prior to analysis. […] The luminescence of the samples was measured using an EnVision Multimode plate reader (Perkin Elmer, Waltham, MA). […]
In general terms: ATP-based viability assays read luminescence as a measure of living cells.

For the next data set, the system named is DEL. Description: Cancer cell direct cytotoxicity assay (CellTiter-Glo), DEL. The class given is cell-based. The settings on record: Homo sapiens, 96 h, free compound, read-out: Compound X50. Here is the method:
as §1, §2

A further data set relates to 786-O. Nature of the data set: Cancer cell direct cytotoxicity assay (CellTiter-Glo), 786-O. The class given is cell-based. The conditions noted are these: Homo sapiens, 786-0, 96 h, free compound, read-out: Compound X50. Here is the method:
as §1, §2

In a further data set the test system is A2058. Description: Cancer cell direct cytotoxicity assay (CellTiter-Glo), A2058. Format: cell-based. The settings on record: Homo sapiens; A2058, 96 h, free compound; read-out: Compound X50. The procedure: as §1, §2
The next data set deals with DELBVR. Nature of the data set: Cancer cell direct cytotoxicity assay (CellTiter-Glo), DELBVR. Format: cell-based. The conditions noted are these: Homo sapiens, 96 h, free compound, read-out: Compound X50. The procedure:
as §1, §2

The subject of another data set is Ls174T. Nature of the data set: Cancer cell direct cytotoxicity assay (CellTiter-Glo), Ls174T. The class given is cell-based. The conditions noted are these: Homo sapiens, 96 h, free compound, read-out: Compound X50. Here is the method: as §1, §2
The subject of another data set is BxPC3. Description: Cancer cell direct cytotoxicity assay (CellTiter-Glo), BxPC3. Format: cell-based. The conditions noted are these: Homo sapiens, BXPC-3; BxPC3, 96 h, free compound; read-out: Compound X50. Here is the method: as §1, §2
For the next data set, the system named is Karpas299. Nature of the data set: Cancer cell direct cytotoxicity assay (CellTiter-Glo), Karpas299. Format: cell-based. The settings on record: Homo sapiens, KARPAS-299; Karpas299, 96 h, free compound; read-out: Compound X50. Here is the method: as §1, §2
For the next data set, the system named is human cancer cell lines. Description: Cancer cell direct cytotoxicity assay, panel statement. The class given is cell-based. The settings on record: panel of human cancer cell lines. The procedure: as §1
Cancer cells were counted and plated in 40 μL complete growth media in 384-well, white-walled tissue culture treated plates (Corning). Cell plates were incubated at 37° C. and with 5% CO2 overnight to allow the cells to equilibrate. […] The luminescence of the samples was measured using an EnVision Multimode plate reader (Perkin Elmer, Waltham, MA). […]
Compound 12a was conjugated to both targeted and non-binding antibodies using a variety of non-cleavable linkers (12, 17, 19-24) and the resulting ADCs were assessed for their ability to activate THP1-Dual™ reporter cells. […] We also evaluated the ability of these linkers to directly kill cancer cells when conjugated to targeted mAbs binding tumor antigen A or antigen B (CD30).

The subject of the next data set is L540cy. Description: Cancer cell direct cytotoxicity assay (CellTiter-Glo), L540cy. The class given is cell-based. The conditions noted are these: Homo sapiens, 96 h, free compound, read-out: Compound X50. The procedure:
as §1, §2

For another data set, the system named is SU-DHL-4. Nature of the data set: Cancer cell direct cytotoxicity assay (CellTiter-Glo), SU-DHL-4. The class given is cell-based. The conditions noted are these: Homo sapiens; SU-DHL-4, 96 h, free compound; read-out: Compound X50. Here is the method: as §1, §2
For a further data set, the system named is MOLM-13. Description: Cancer cell direct cytotoxicity assay (CellTiter-Glo), MOLM-13. Format: cell-based. The settings on record: Homo sapiens; MOLM-13, 96 h, free compound; read-out: Compound X50. Here is the method:
as §1, §2

Setting [3] is: Renca tumor-bearing mice, 3 h, 1.86 mg/kg.
Where [4] appears, read: Renca tumor-bearing mice, 6 h, 1.86 mg/kg.
Setting [5] is: Renca tumor-bearing mice, 24 h, 1.86 mg/kg.

Read-outs that look alike come from different tables or passages of the source.

`CCn1nc(C)cc1C(=O)Nc1nc2cc(C(N)=O)cc(OC)c2n1C/C=C/Cn1c(NC(=O)c2cc(C)nn2CC)nc2cc(C(N)=O)cc(OCCCN3CCOCC3)c21.O=C(O)C(F)(F)F.O=C(O)C(F)(F)F.O=C(O)C(F)(F)F` [Compound A, (E)-1-(4-(5-carbamoyl-2-(1-ethyl-3-methyl-1H-pyrazole-5-carboxamido)-7-(3-morpholinopropoxy)-1H-benzo[d]imidazol-1-yl)but-2-en-1-yl)-2-(1-ethyl-3-methyl-1H-pyrazole-5-carboxamido)-7-methoxy-1H-benzo[d]imidazole-5-carboxamide tris(2,2,2-trifluoroacetate), reference compound]: in data set [1] (setting [3]), the IL1β in plasma is 1.5 pg/mL, the IL12p70 in plasma was found to be 0.2 pg/mL, the IL-6 in plasma was determined as 3550 pg/mL and the IL-10 in plasma amounted to 0.5 pg/mL. For the same compound, in data set [1] (setting [3]), the IP10 in plasma turned out to be 4780 pg/mL and the MCP-1 in plasma turned out to be 14500 pg/mL. In data set [1] (setting [4]), the IFNγ in plasma is 71.8 pg/mL, the IL1β in plasma was found to be 0.6 pg/mL, the IL12p70 in plasma is 0.2 pg/mL and the IL-6 in plasma was 732 pg/mL. In [1] (setting [4]), this compound had an IL-10 in plasma below 3.2 pg/mL and an IP10 in plasma of 4980 pg/mL. Also, in data set [1] (setting [5]), the IFNγ in plasma is below 3.2 pg/mL, the IL1β in plasma turned out to be 0.3 pg/mL, the IL12p70 in plasma is below 3.2 pg/mL and the IL-6 in plasma amounted to 16.4 pg/mL. For the same compound, in data set [1] (setting [5]), the IL-10 in plasma was below 3.2 pg/mL and the IP10 in plasma came out at 890 pg/mL. Moreover, the “systemic pro-inflammatory cytokine (IL-6 and TNF) production” value in data set [1] (plasma of tumor-bearing mice) was “induced robust production of IL-6 and TNF”. In the data set with Renca cancer cells, the “tolerability” value is recorded as “less well tolerated”. Besides, the “average weight loss after the 2nd dose” value with Renca cancer cells (q7dx3) was found to be 6.2%. In data set [2] (Homo sapiens, THP1-Dual; free compounds, 24 h, Lucia reporter signal; read-out: EC50), the EC50 – broadly, the concentration giving half of the maximal effect – is 3 nM. Besides, the “potency relative to other free compound” value in [2] (free drug) is reported as “significantly more potent”.

As to `CCn1nc(C)cc1C(=O)Nc1nc2cc(C(N)=O)cc(OC)c2n1C/C=C/Cn1c(NC(=O)c2cc(C)nn2CC)nc2cc(C(N)=O)cc(OCCCN(C)C(=O)CCN3C(=O)CC(SC[C@H](N)C(=O)O)C3=O)c21` (stereo partly drawn) [Compound 16, S-(1-(3-((3-((5-carbamoyl-1-((E)-4-(5-carbamoyl-2-(1-ethyl-3-methyl-1H-pyrazole-5-carboxamido)-7-methoxy-1H-benzo[d]imidazol-1-yl)but-2-en-1-yl)-2-(1-ethyl-3-methyl-1H-pyrazole-5-carboxamido)-1H-benzo[d]imidazol-7-yl)oxy)propyl)(methyl)amino)-3-oxopropyl)-2,5-dioxopyrrolidin-3-yl)-L-cysteine], the IC50 in the data set on MDAMB231 was above 1000 nM; in the data set with DEL it was 4 nM; with 786-O, above 1000 nM; in the data set on A2058 it was above 1000 nM; in the data set with DELBVR it was 7 nM; in the data set on Ls174T, above 1000 nM. The IC50 was above 1000 nM in the data set on BxPC3; above 1000 nM in the data set with Karpas299; 29 nM in the data set on L540cy; above 1000 nM with SU-DHL-4; 27 nM with MOLM-13. Moreover, in the data set with human cancer cell lines, the “direct cytotoxic activity on cancer cell lines” value is “demonstrated direct cytotoxic activity on a subset of cancer cell lines”. In addition, the EC50 was found to be 34 nM in data set [2] (Homo sapiens, THP1-Dual, 24 h, free compounds, 24 h, Lucia reporter signal; read-out: EC50) and 52 nM in data set [2] (free compounds, 24 h, Lucia reporter signal; read-out: EC50).

For the origin of these results see US20240123079A1 (Seagen Inc., priority 2021, published 2024).
